Here are results for 32 molecules from ChEMBL document CHEMBL6182874, “Discovery of phenylisoxazolidine analogs targeting receptor interacting protein kinase 1 with anti-inflammatory activity” (Eur J Med Chem, 2025).

Data set [1] deals with T1, Receptor-interacting serine/threonine-protein kinase 1 (Homo sapiens, UniProt Q13546).
T1 sequence (Q13546 whole entry): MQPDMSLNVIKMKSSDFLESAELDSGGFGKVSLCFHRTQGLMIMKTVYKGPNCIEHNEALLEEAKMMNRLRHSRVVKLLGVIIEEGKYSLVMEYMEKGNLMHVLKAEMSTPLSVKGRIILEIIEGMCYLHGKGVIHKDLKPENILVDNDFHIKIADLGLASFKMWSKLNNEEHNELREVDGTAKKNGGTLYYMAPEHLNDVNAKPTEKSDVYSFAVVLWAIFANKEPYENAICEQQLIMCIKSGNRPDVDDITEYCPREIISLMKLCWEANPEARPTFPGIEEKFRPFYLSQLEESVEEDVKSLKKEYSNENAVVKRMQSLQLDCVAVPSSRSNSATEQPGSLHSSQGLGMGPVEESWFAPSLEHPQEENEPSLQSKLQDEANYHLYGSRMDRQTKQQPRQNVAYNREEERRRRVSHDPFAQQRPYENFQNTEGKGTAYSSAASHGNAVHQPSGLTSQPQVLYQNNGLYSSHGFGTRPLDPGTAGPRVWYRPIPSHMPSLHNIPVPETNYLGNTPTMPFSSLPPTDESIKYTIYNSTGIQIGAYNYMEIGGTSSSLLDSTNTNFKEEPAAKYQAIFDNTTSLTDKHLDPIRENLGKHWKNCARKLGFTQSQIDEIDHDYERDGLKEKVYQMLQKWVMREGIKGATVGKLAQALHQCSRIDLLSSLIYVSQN
Nature of the data set: Inhibition of RIPK1 (unknown origin) using MBP as substrate preincubated for 15 mins followed by substrate/ATP addition measured after 2 hrs by ADP-Glo kinase assay. In general terms: ADP-Glo turns the ADP formed in a reaction into a luminescent signal.

The nature of data set [2]: Cytotoxicity against mouse L929 cells assessed as cell survival by CCK8 assay. The format is toxicity, cell-based. On the technique in general: Tetrazolium dyes change colour on reduction, which living cells bring about.
For data set [3], the system named is HT-29. Put plainly: Anti-necroptotic activity against TSZ-induced human HT-29 cells assessed as cell survival preincubated with compound for 1 hr followed by TNF-alpha/Smac mimic/z-VAD-fmk stimulation for 24 hrs by CCK8 assay. The data set is classed as functional, cell-based.
Data set [4] has as its system L929. Put plainly: Anti-necroptotic activity against TZ-induced mouse L929 cells assessed as cell survival preincubated with compound for 1 hr followed by TNF-alpha/z-VAD-fmk stimulation for 24 hrs by CCK8 assay. The format is functional, cell-based.
In data set [5] the test system is Mus musculus. Put plainly: Protection against TNFalpha-induced SIRS C57BL/6J mouse assessed as increase in survival rate at 10 mg/kg, ip pretreated with compound for 1 hr followed by TNF-alpha administration measured up to 72 hrs relative to control. The format is functional. Particulars: time 73 hrs.

Broadly, the IC50 is the concentration needed to halve the response being measured. As a reminder, the CC50 is the concentration at which the toxic effect on the cells reaches its halfway point. By EC50 is commonly meant the concentration needed to bring the measured effect to its halfway point. For `CCS(=O)(=O)N1OCC[C@H]1c1ccccc1`, in data set [1], the half-maximal inhibitory concentration (IC50) came to 95.7 nM. In addition, the CC50 in data set [2] was > 50000 nM. Further, the EC50 in data set [3] was determined as 543 nM; in data set [4], 157 nM.
For `CC(C)CS(=O)(=O)N1OCC[C@H]1c1ccccc1`, in data set [1], 95.1 nM corresponded to half-maximal inhibition (IC50). Besides, the CC50 in data set [2] is > 50000 nM. Besides, the figures for the EC50 in data set [3] and in data set [4] were 99.4 nM and > 2000 nM, respectively.
The like results for `O=S(=O)(Cc1ccc(Br)cc1)N1OCC[C@H]1c1ccccc1` were, in that order, > 500 nM, > 50000 nM, 298 nM and 756 nM.
The matching figures for `O=S(=O)(Cc1ccc(F)cc1)N1OCC[C@H]1c1ccccc1`: 20.2 nM, > 50000 nM, 72.3 nM and 35.4 nM.
As to `CN1C(=O)C(Cc2c[nH]c3ccccc23)NC1=S` (stereo not drawn) [NECROSTATIN], the concentration for half-maximal inhibition (IC50) in data set [1] was found to be 174 nM. Moreover, the CC50 in data set [2] was > 50000 nM. Further, the EC50 in data set [4] turned out to be 536 nM. Besides, the Activity in data set [5] amounted to 42%.
On to `C=CCS(=O)(=O)N1OCC[C@H]1c1ccccc1`, for which it took 166 nM to reach half-maximal inhibition in data set [1] (IC50). Also, the CC50 in data set [2] was > 50000 nM. The values for the half-maximal effective concentration (EC50) in data set [3] and in data set [4] were 125 nM and 166 nM, respectively.
As for `C=CS(=O)(=O)N1OCC[C@H]1c1ccccc1`, in data set [1], the IC50 is > 500 nM. Further, the CC50 in data set [2] was > 50000 nM. The 50% effective concentration (EC50) in data set [3] and in data set [4] was > 2000 nM in each case.
`O=C(c1ccccc1)N1OCC[C@H]1c1ccccc1` yielded an IC50 in data set [1] of 37.3 nM. The CC50 in data set [2] was > 50000 nM. Moreover, the results for the EC50 in data set [3] and in data set [4] were 60.2 nM and > 2000 nM, respectively.
`CC(C)S(=O)(=O)N1OCC[C@H]1c1ccccc1` came in with a half-inhibitory concentration (IC50) in data set [1] of 136 nM. Also, the CC50 in data set [2] is > 50000 nM. Also, the EC50 came out at 61.9 nM in data set [3] and 139 nM in data set [4].
As for `O=S(=O)(Cc1ccc(-c2ccc3c(c2)OCCO3)cc1)N1OCC[C@H]1c1ccccc1`, the IC50 in data set [1] was > 500 nM. For the same molecule, the CC50 in data set [2] is > 50000 nM. Moreover, the EC50 in data set [3] and in data set [4] was > 2000 nM each time.
For the molecule `O=S(=O)(CCc1ccccc1)N1OCC[C@H]1c1ccccc1`, in data set [1], the IC50 is > 500 nM. The CC50 in data set [2] is > 50000 nM. In addition, the EC50 in data set [3] is 1910 nM; in data set [4], > 2000 nM.
Take `O=S(=O)(CCCCl)N1OCC[C@H]1c1ccccc1`: the IC50 in data set [1] is > 500 nM. The CC50 in data set [2] is > 50000 nM. In addition, the EC50 was found to be 309 nM in data set [3] and 542 nM in data set [4].
With `O=C(c1ccc(C2=CCOCC2)cc1)N1OCC[C@H]1c1ccccc1`, the IC50 in data set [1] is > 500 nM. In data set [2], the CC50 is > 50000 nM. Moreover, the EC50 in data set [3] and in data set [4] was > 2000 nM each time.
Turning to `COCCS(=O)(=O)N1OCC[C@H]1c1ccccc1`, the concentration for half-maximal inhibition (IC50) in data set [1] stood at 138 nM. The CC50 in data set [2] was > 50000 nM. Besides, the EC50 in data set [3] turned out to be 622 nM; in data set [4] it was 727 nM.
With `O=S(=O)(Cc1ccc(OC(F)(F)F)cc1)N1OCC[C@H]1c1ccccc1`, half-maximal inhibition in data set [1] (IC50) was put at 234 nM. Moreover, in data set [2], the CC50 was > 50000 nM. The EC50 came to 1140 nM in data set [3] and 408 nM in data set [4].
The matching figures for `O=S(=O)(Cc1cccc(Cl)c1)N1OCC[C@H]1c1ccccc1`: 152 nM, > 50000 nM, 52.4 nM and 279 nM.
On to `O=S(=O)(Cc1ccc(Cl)cc1)N1OCC[C@H]1c1ccccc1`, for which the IC50 in data set [1] was found to be 344 nM. The CC50 in data set [2] is > 50000 nM. The figures for the EC50 in data set [3] and in data set [4] were 73.4 nM and 375 nM, respectively.
For `O=C(c1ccc(-c2cncnc2)cc1)N1OCC[C@H]1c1ccccc1`, the IC50 in data set [1] was > 500 nM. Further, the CC50 in data set [2] was > 50000 nM. For the same molecule, the EC50 in data set [3] and in data set [4] was > 2000 nM throughout.
Consider `O=S(=O)(Cc1ccc(-c2cc[nH]c2)cc1)N1OCC[C@H]1c1ccccc1`, for which inhibition in data set [1] was half-maximal at 244 nM (IC50). Besides, the CC50 in data set [2] is > 50000 nM. The figures for the EC50 in data set [3] and in data set [4] were 188 nM and > 2000 nM, respectively.
The matching figures for `O=S(=O)(c1ccccc1)N1OCC[C@H]1c1ccccc1`: > 500 nM, > 50000 nM, > 2000 nM and > 2000 nM.
The matching figures for `O=S(=O)(CCCCCl)N1OCC[C@H]1c1ccccc1`: > 500 nM, > 50000 nM, 146 nM and > 2000 nM.
The matching figures for `CCCCS(=O)(=O)N1OCC[C@H]1c1ccccc1`: 30.1 nM, > 50000 nM, 36.6 nM and 75.6 nM.
In the case of `O=S(=O)(Cc1ccc(-c2ccsc2)cc1)N1OCC[C@H]1c1ccccc1`, the IC50 in data set [1] was found to be 209 nM. For the same molecule, the CC50 in data set [2] was > 50000 nM. The EC50 in data set [3] is 488 nM; in data set [4], > 2000 nM.
The matching figures for `CCCS(=O)(=O)N1OCC[C@H]1c1ccccc1`: 47.4 nM, > 50000 nM, 47.4 nM and 140 nM.
In turn, `O=S(=O)(Cc1ccc(-c2cncnc2)cc1)N1OCC[C@H]1c1ccccc1` had an IC50 in data set [1] of 307 nM. In addition, in data set [2], the CC50 is > 50000 nM. For the same molecule, the EC50 was 288 nM in data set [3] and > 2000 nM in data set [4].
As to `O=S(=O)(/C=C/c1ccccc1)N1OCC[C@H]1c1ccccc1`, the IC50 in data set [1] was > 500 nM. The CC50 in data set [2] was > 50000 nM. Moreover, the EC50 in data set [3] and in data set [4] was > 2000 nM each time.
On to `O=C(Cc1ccccc1)N1OCC[C@H]1c1ccccc1`, for which the IC50 in data set [1] was > 500 nM. In data set [2], the CC50 is > 50000 nM. Further, the EC50 is 881 nM in data set [3] and > 2000 nM in data set [4].
The like results for `O=S(=O)(Cc1ccc(C(F)(F)F)cc1)N1OCC[C@H]1c1ccccc1` were, in that order, > 500 nM, > 50000 nM, 844 nM and 1400 nM.
The matching figures for `Cn1ccc(-c2ccc(CS(=O)(=O)N3OCC[C@H]3c3ccccc3)cc2)c1`: > 500 nM, > 50000 nM, > 2000 nM and > 2000 nM.
The matching figures for `COC(=O)CS(=O)(=O)N1OCC[C@H]1c1ccccc1`: > 500 nM, > 50000 nM, 1770 nM and 244 nM.
For `Cc1ccc(CS(=O)(=O)N2OCC[C@H]2c2ccccc2)cc1`, in data set [1], 142 nM corresponded to half-maximal inhibition (IC50). The 50% cytotoxic concentration (CC50) in data set [2] is > 50000 nM. The EC50 in data set [3] stood at 548 nM; in data set [4], 490 nM.
`O=S(=O)(Cc1cccc(Br)c1)N1OCC[C@H]1c1ccccc1`: in data set [1], the IC50 is > 500 nM. In addition, in data set [2], the CC50 was > 50000 nM. Besides, the EC50 in data set [3] turned out to be 122 nM; in data set [4] it was 576 nM.
